The text below walks through data of ChEMBL document CHEMBL5150064 (J Med Chem, 2022).

By logD is commonly meant the decadic logarithm of the distribution of all forms, ionised or not, between an organic phase and buffer at a given pH. The Ki is a measure of affinity in units of concentration, obtained from inhibition or displacement. A word on the EC50: it is the concentration that produces a half-maximal response. A high value points to a less potent agent. Broadly, the clearance is the rate of elimination divided by the concentration. Higher therefore signals a high capacity for elimination. Broadly, the Papp A→B is the apparent permeability from the apical to the basolateral side of a cell layer.

In brackets after ≈: the same amount, converted by molar mass. Activity calls are given as the source filed them. The rule behind the calls is not given here.

Data set [1] is described as follows: Lipophilicity, logD of compound in 1-Octanol/PBS at pH 7.4 by LC-MS/MS method. The data set is classed as physicochemical.
The species named for data set [2] is Homo sapiens. Description: Selectivity ratio of Ki for PI3Kdelta (unknown origin) to Ki for PI3Kalpha (unknown origin).
Data set [3] addresses Phosphatidylinositol 4,5-bisphosphate 3-kinase catalytic subunit alpha isoform (Homo sapiens, UniProt P42336). Description: Inhibition of PI3Kalpha (unknown origin) using PIP2:3PS as substrate in presence of ATP measured after 120 mins by ADP-Glo assay.
The nature of data set [4]: Kinetic solubility of the compound at pH 7.4. Particulars: buffer, read-out: Kinetic_solubility. The data set is classed as physicochemical.
The target of data set [5] is Phosphatidylinositol 4,5-bisphosphate 3-kinase catalytic subunit alpha isoform (Homo sapiens, UniProt P42336, H1047R).
Data set [6] can be described thus: Clearance in Sprague-Dawley rat plasma at 1 mg/kg, iv measured upto 8 hrs by LC-MS/MS analysis. The class given is ADME, organism-based.
Data set [7] is described as follows: Oral bioavailability in Sprague-Dawley rat plasma at 5 mg/kg measured upto 8 hrs by LC-MS/MS method. The class given is ADME, organism-based.
A short description of data set [8]: Apparent permeability across apical to basolateral side in MDCK cells at 10 uM measured upto 180 mins by LC-MS/MS method. The class given is ADME, cell-based, Canis lupus familiaris. The note with it: dog.
The species named for data set [9] is Homo sapiens. Description: Selectivity ratio of EC50 for PI3Kalpha H1047R mutant in human HCC1954 cells assessed as reduction in PRAS40 phosphorylation to EC50 for wild type PI3Kalpha in human HDQ-P1 cells assessed as reduction in PRAS40 phosphorylation. The data set is classed as cell-based.
Data set [10] has as its system Phosphatidylinositol 4,5-bisphosphate 3-kinase catalytic subunit alpha isoform (Homo sapiens), P42336 [H1047R]. Description: Induction of P110alpha H1047R mutant degradation in human HCC1954 cells at 0.012 to 1 uM after 24 hrs. The note with it: dose 0.012-1 µM. The data set is classed as cell-based.

Sequence of Phosphatidylinositol 4,5-bisphosphate 3-kinase catalytic subunit alpha isoform (Homo sapiens, UniProt P42336) (P42336 whole entry, canonical isoform): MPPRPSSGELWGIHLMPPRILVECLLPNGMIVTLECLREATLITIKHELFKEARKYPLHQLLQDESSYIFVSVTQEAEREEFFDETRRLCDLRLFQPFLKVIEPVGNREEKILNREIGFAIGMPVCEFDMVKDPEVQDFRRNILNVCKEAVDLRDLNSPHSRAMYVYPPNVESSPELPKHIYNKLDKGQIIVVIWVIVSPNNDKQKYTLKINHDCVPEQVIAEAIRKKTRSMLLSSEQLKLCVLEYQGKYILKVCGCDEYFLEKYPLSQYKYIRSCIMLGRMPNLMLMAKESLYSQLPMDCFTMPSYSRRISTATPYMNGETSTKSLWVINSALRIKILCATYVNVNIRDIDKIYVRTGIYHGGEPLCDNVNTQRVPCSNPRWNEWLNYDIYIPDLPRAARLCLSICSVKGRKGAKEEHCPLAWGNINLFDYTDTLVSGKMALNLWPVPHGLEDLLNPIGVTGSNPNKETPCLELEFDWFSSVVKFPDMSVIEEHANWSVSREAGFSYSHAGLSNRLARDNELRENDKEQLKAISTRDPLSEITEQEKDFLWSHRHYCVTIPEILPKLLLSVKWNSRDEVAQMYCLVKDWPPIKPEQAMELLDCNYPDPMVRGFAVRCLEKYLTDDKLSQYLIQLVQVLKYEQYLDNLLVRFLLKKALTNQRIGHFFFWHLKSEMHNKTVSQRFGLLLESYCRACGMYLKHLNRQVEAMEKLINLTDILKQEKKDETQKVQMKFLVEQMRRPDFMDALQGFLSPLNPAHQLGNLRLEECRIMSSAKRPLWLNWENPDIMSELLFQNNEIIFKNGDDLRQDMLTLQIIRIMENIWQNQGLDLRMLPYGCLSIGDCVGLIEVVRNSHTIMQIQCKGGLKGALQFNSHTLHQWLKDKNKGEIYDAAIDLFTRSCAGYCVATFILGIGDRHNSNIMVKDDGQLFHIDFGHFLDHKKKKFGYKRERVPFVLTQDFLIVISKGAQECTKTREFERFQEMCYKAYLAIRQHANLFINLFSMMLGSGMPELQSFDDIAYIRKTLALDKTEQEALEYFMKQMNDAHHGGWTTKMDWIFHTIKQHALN
Sequence of Phosphatidylinositol 4,5-bisphosphate 3-kinase catalytic subunit alpha isoform (Homo sapiens, UniProt P42336, H1047R) (P42336 whole entry H1047R, canonical isoform): as the sequence (P42336 whole entry, canonical isoform) above, with H1047R counted along it
Sequence of Phosphatidylinositol 4,5-bisphosphate 3-kinase catalytic subunit alpha isoform (Homo sapiens), P42336 [H1047R] (P42336 whole entry H1047R, canonical isoform): as the sequence (P42336 whole entry, canonical isoform) above, with H1047R counted along it

In [1], `C[C@H](Oc1ccc2c(c1)OCCn1cc(-c3ncnn3CC(F)(F)F)nc1-2)C(N)=O` displayed a logD of 2.2. Besides, the Ratio Ki in [2] was 14.
Take `C[C@@H]1CN(c2cn3c(n2)-c2ccc(N4CCC[C@H]4C(N)=O)cc2OCC3)C(=O)O1`: in data set [3], the Ki amounted to 11.5 nM. The logD in data set [1] was 1.1. Further, the Ratio Ki in data set [2] worked out at 15. Further, the solubility kinetic in [4] turned out to be 52 µM (≈ 20.7 µg/mL).
On to `C[C@H](Oc1ccc2c(c1)OCCn1cc(-c3nc(CO)nn3CC(F)(F)F)nc1-2)C(N)=O`, for which, in [5], the response was half-maximal at 39 nM (EC50). In data set [6], this molecule registered a clearance of 50 mL/min/kg. Further, the Ki in data set [3] is 0.062 nM. In addition, the logD in data set [1] turned out to be 1.5. The Ratio Ki in [2] is 15. Further, the bioavailability in data set [7] came to 5%. Besides, the Papp A→B at 3 h, 10 µM in data set [8] was 1.5 ×10⁻⁶ cm/s. Further, the Ratio EC50 in data set [9] was found to be 9.5.
Regarding `CO[C@H]1CCN(c2cn3c(n2)-c2ccc(N4CCC[C@H]4C(N)=O)cc2OCC3)C1=O`, in [3], the Ki came out at 3.15 nM. Besides, the logD in data set [1] came out at 0.9. In addition, the Ratio Ki in data set [2] was 4. Also, in data set [4], the solubility kinetic was determined as 154 µM (≈ 63.4 µg/mL). Further, in data set [8], the apical-to-basolateral permeability (Papp A→B) at 3 h, 10 µM was found to be 2.6 ×10⁻⁶ cm/s.
As to `NC(=O)[C@@H]1CCCN1c1ccc2c(c1)OCCn1cc(N3CCCOC3=O)nc1-2`, in data set [3], the Ki came out at 30.3 nM. Besides, the Ratio Ki in data set [2] amounted to 9.
`CC(C)n1nc(N)nc1-c1cn2c(n1)-c1ccc(O[C@@H](C)C(N)=O)cc1OCC2`: a half-maximal effect in data set [5] (EC50) was put at 65 nM. Further, in data set [3], the Ki turned out to be 0.107 nM. The molecule also displayed a logD in data set [1] of 1.1. Also, the Ratio Ki in data set [2] was found to be 17. Further, in data set [8], the Papp A→B at 3 h, 10 µM came to 0.5 ×10⁻⁶ cm/s. The Ratio EC50 in data set [9] worked out at 3.1.
With `C[C@H](Oc1ccc2c(c1)OCCn1cc(N3C(=O)OC[C@H]3C(F)F)nc1-2)C(N)=O`, the Ratio Ki in data set [2] stood at 52.
Turning to `NC(=O)[C@@H]1CCCN1c1ccc2c(c1)OCCn1cc(N3CCOC3=O)nc1-2`, the Ki in [3] amounted to 5.75 nM. The molecule also had a logD in data set [1] of 0.6. Further, the Ratio Ki in [2] turned out to be 15. Besides, the solubility kinetic in [4] is 200 µM (≈ 76.7 µg/mL). For the same molecule, the Papp A→B at 3 h, 10 µM in data set [8] turned out to be 3.1 ×10⁻⁶ cm/s.
For `CC(C)n1nc(N)nc1-c1cn2c(n1)-c1ccc(N3CCC[C@H]3C(N)=O)cc1OCC2` the same measures were 0.026 nM, 1.5, 8, 92 µM (≈ 38.9 µg/mL) and 0.3 ×10⁻⁶ cm/s.
Molecule `CC(C)[C@H](Nc1ccc2c(c1)OCCn1cc(N3C(=O)OC[C@H]3C(F)(F)F)nc1-2)C(N)=O` registered an EC50 in data set [5] of 157 nM. Moreover, the clearance in [6] is 61 mL/min/kg. Moreover, the Ki in data set [3] came to 0.692 nM. Besides, in [1], the logD is 1.7. Further, the Ratio Ki in [2] was 94. The bioavailability in [7] came to 137%. For the same molecule, the Papp A→B at 3 h, 10 µM in data set [8] was 1.9 ×10⁻⁶ cm/s. In [9], the Ratio EC50 came to 2.3.
In the case of `C[C@@H]1COC(=O)N1c1cn2c(n1)-c1ccc(N3CCC[C@H]3C(N)=O)cc1OCC2`, the clearance in data set [6] was determined as 23 mL/min/kg. Moreover, in [1], the logD stood at 0.7. Further, the Ratio Ki in data set [2] came out at 24. The solubility kinetic in [4] was 150 µM (≈ 59.6 µg/mL). Moreover, in data set [7], the bioavailability stood at 59%. Besides, in [8], the Papp A→B at 3 h, 10 µM was 2.1 ×10⁻⁶ cm/s.
As to `NC(=O)[C@@H](Nc1ccc2c(c1)OCCn1cc(N3C(=O)OC[C@H]3C(F)(F)F)nc1-2)C1CCC1`, the Ki in [3] is 0.323 nM. For the same molecule, the Ratio Ki in data set [2] worked out at 182.
`C[C@H]1CN(c2cn3c(n2)-c2ccc(N4CCC[C@H]4C(N)=O)cc2OCC3)C(=O)O1`: the Ki in data set [3] was 6.49 nM. In addition, the logD in [1] came to 1.1. Moreover, the Ratio Ki in [2] worked out at 6. The solubility kinetic in data set [4] amounted to 20 µM (≈ 7.95 µg/mL).
In turn, `NC(=O)[C@@H]1CCCN1c1ccc2c(c1)OCCn1cc(N3C(=O)OC[C@H]3C(F)(F)F)nc1-2` yielded an EC50 in [5] of 40 nM. Besides, in [6], the clearance was found to be 35 mL/min/kg. The Ki in data set [3] came out at 0.15 nM. Also, in data set [10], the outcome was Active. Also, the logD in data set [1] was determined as 1.4. Besides, the Ratio Ki in [2] was found to be 15. The solubility kinetic in data set [4] is 130 µM (≈ 58.7 µg/mL). Also, the bioavailability in data set [7] was found to be 57%. In [8], the Papp A→B at 3 h, 10 µM was determined as 3.2 ×10⁻⁶ cm/s.
Turning to `COC[C@@H]1COC(=O)N1c1cn2c(n1)-c1ccc(N3CCC[C@H]3C(N)=O)cc1OCC2`, the Ki in [3] came to 3.24 nM. In [1], the logD was 0.8. The Ratio Ki in data set [2] worked out at 8. In data set [4], the solubility kinetic is 137 µM (≈ 58.6 µg/mL).
As to `CC[C@H](Nc1ccc2c(c1)OCCn1cc(N3C(=O)OC[C@H]3C(F)(F)F)nc1-2)C(N)=O`, it took 56 nM to reach a half-maximal effect in data set [5] (EC50). Also, in data set [6], the clearance turned out to be 91 mL/min/kg. Further, in data set [3], the Ki is 0.157 nM. In data set [1], the logD is 1.4. Also, the Ratio Ki in data set [2] is 146. Further, the bioavailability in [7] stood at 82%. Besides, in [8], the Papp A→B at 3 h, 10 µM is 1.7 ×10⁻⁶ cm/s. Also, the Ratio EC50 in data set [9] worked out at 3.6.
On to `NC(=O)[C@@H]1CCCN1c1ccc2c(c1)OCCn1cc(N3C(=O)CC[C@H]3C(F)(F)F)nc1-2`, for which the inhibition constant Ki in [3] is 0.8 nM. Also, the logD in data set [1] came to 1.6.
Consider `NC(=O)[C@@H]1CCCN1c1ccc2c(c1)OCCn1cc(N3CCOCCC3=O)nc1-2`, for which the Ki in data set [3] came to 3.82 nM. The same molecule had a logD in data set [1] of 0.7. For the same molecule, the Ratio Ki in data set [2] turned out to be 6. In addition, the solubility kinetic in data set [4] is 44 µM (≈ 18.1 µg/mL).
Consider `CC1(C)C(=O)NC(=O)N1c1cn2c(n1)-c1ccc(N3CCC[C@H]3C(N)=O)cc1OCC2`, for which the inhibition constant (Ki) in [3] came out at 0.681 nM. Also, the logD in data set [1] is 0.7. For the same molecule, the Ratio Ki in data set [2] was determined as 5. Moreover, the solubility kinetic in data set [4] amounted to 114 µM (≈ 48.4 µg/mL). Moreover, in data set [8], the Papp A→B at 3 h, 10 µM stood at 0.3 ×10⁻⁶ cm/s.
With `NC(=O)[C@@H]1CCCN1c1ccc2c(c1)OCCn1cc(N3CCOCC3=O)nc1-2`, in data set [3], the Ki is 2.52 nM. In [1], this molecule came in with a logD of 0.7. Moreover, the Ratio Ki in data set [2] was found to be 8. In addition, in data set [4], the solubility kinetic was found to be 65 µM (≈ 25.8 µg/mL).
Turning to `CO[C@@H]1CCN(c2ccc3c(c2)OCCn2cc(N4C(=O)OC[C@H]4C(F)(F)F)nc2-3)[C@@H]1C(N)=O`, the Ki in data set [3] was found to be 0.097 nM. In [2], the Ratio Ki turned out to be 27.
With `NC(=O)[C@@H]1CCCN1c1ccc2c(c1)OCCn1cc(N3CCn4nccc4C3=O)nc1-2`, in data set [3], the Ki amounted to 0.44 nM. In addition, the logD in data set [1] was found to be 1.2. For the same molecule, the Ratio Ki in data set [2] turned out to be 7. Also, the solubility kinetic in data set [4] came out at 2 µM (≈ 0.867 µg/mL).
Consider `CC(C)[C@@H]1COC(=O)N1c1cn2c(n1)-c1ccc(N3CCC[C@H]3C(N)=O)cc1OCC2`, for which, in data set [3], the Ki came out at 0.042 nM. The same molecule showed a logD in data set [1] of 1.8. For the same molecule, the Ratio Ki in data set [2] stood at 22. Besides, the solubility kinetic in data set [4] was determined as 131 µM (≈ 55.7 µg/mL). In addition, the Papp A→B at 3 h, 10 µM in data set [8] worked out at 8.4 ×10⁻⁶ cm/s.
On to `NC(=O)[C@@H]1COCCN1c1ccc2c(c1)OCCn1cc(N3C(=O)OC[C@H]3C(F)(F)F)nc1-2`, for which the Ki in data set [3] was determined as 2.97 nM. Further, the Ratio Ki in data set [2] was 13.
Turning to `NC(=O)[C@@H]1CCCN1c1ccc2c(c1)OCCn1cc(N3CCCOCC3=O)nc1-2`, in data set [3], the Ki was 0.32 nM. In addition, the logD in [1] was 0.7. The Ratio Ki in data set [2] was 15. The solubility kinetic in [4] is 11 µM (≈ 4.53 µg/mL).
As to `C[C@H](Nc1ccc2c(c1)OCCn1cc(N3C(=O)OC[C@H]3C(F)(F)F)nc1-2)C(N)=O`, in data set [5], the EC50 was 49 nM. Besides, in [6], the clearance stood at 57 mL/min/kg. For the same molecule, in data set [3], the Ki came out at 0.095 nM. Moreover, the logD in data set [1] came out at 0.9. Further, the Ratio Ki in [2] worked out at 171. Also, the bioavailability in data set [7] stood at 65%. Besides, in [8], the Papp A→B at 3 h, 10 µM came to 1 ×10⁻⁶ cm/s. For the same molecule, the Ratio EC50 in data set [9] was 2.7.
In [6], `NC(=O)[C@@H](Nc1ccc2c(c1)OCCn1cc(N3C(=O)OC[C@H]3CF)nc1-2)C1CC1` gave a clearance of 63 mL/min/kg. The pH-dependent lipophilicity (logD) in data set [1] worked out at 0.7. In [8], the Papp A→B at 3 h, 10 µM was 0.8 ×10⁻⁶ cm/s.
Consider `NC(=O)[C@@H]1[C@H](F)CCN1c1ccc2c(c1)OCCn1cc(N3C(=O)OC[C@H]3C(F)(F)F)nc1-2`, for which, in [3], the Ki turned out to be 0.289 nM. The Ratio Ki in data set [2] stood at 25.
